Source: US7601736B2, “Pyridine derivatives, a process for their preparation and a pharmaceutical composition containing the same” (SK Chemicals Co., Ltd., priority 2003, dated 2009)

What was measured:
TNF-α [1] = assay: Cytokine inhibitory activity in animal model (LPS-treated SD rats), plasma TNF-α; assay type: in vivo, Sprague Dawley (SD) rats; settings: for inhibition in vivo at 40 mg/kg: Rattus norvegicus, 2 h, read-out: TNF-α Inhibition Rate (Conc.); for inhibition in vivo at 40 mg/kg / TNF-α Inhibition Rate (Conc.): SD rats, oral, LPS, 40 mg/kg; for inhibitory activity on production of TNF-α compared to Indomethacin: rat model, in words
Experimental: Sprague Dawley (SD) rats with body weights of about 180 to about 200 g were fasted (free drinking) and then tested. Test compounds were administered orally at 40 mg/kg and then abdominally administered with LPS 1 μg/mL after 1 hour. After 2 hours, the rats were sacrificed and bloods were collected from abdominal vein, stored at room temperature for about 2 hours, and then centrifuged at 12,000 rpm for about 2 minutes. Thus produced plasma was respectively collected and its TNF-α in each plasma was quantitated using mouse TNF-α ELISA kit based on the amount of recombinant TNF-α in rats. The plate used was coated with anti-rat TNF-α monoclone IgG antibodies. Likewise, for the test of IL-1α, IL-1α in each plasma was quantitated using the above plasma and mouse IL-1α ELISA kit based on the amount of recombinant IL-1α in rats. The plate used was coated with anti-rat IL-1α monoclone IgG antibodies. Further, for the test of IL-6, IL-6 in each plasma was quantitated using the above plasma and mouse IL-6 ELISA kit based on the amount of recombinant IL-6 in rats. Further, for the test of INF-γ, INF-γ in each plasma was quantitated using the above plasma and mouse INF-γ ELISA kit based on the amount of recombinant INF-γ in rats. The plate used was coated with anti-rat INF-γ monoclone IgG antibodies. From the above tests, inhibitory rates on the expression of each cytokine were obtained and they were compared to that of Indomethacin.

TNF-α [2] = assay: Cytokine inhibitory activity in cells: LPS-induced TNF-α in RAW 264.7; assay type: cell-based, murine; settings: for inhibition at 10 µM / inhibition at 100 µM / inhibition at 1000 µM / inhibition at 1 µM: Mus musculus, RAW264.7, read-out: TNF-α Inhibition Rate (%); for inhibition at 10 µM / inhibition at 100 µM / inhibition at 1000 µM / TNF-α Inhibition Rate (%) / inhibition at 1 µM: RAW 264.7, LPS 1 μg/mL; for inhibitory activity in RAW 264.7 cell line on the production of TNF-α, in words: compared to the control compounds
Experimental: General reagents used were purchased from Sigma-Aldrich chem. Co. and cytokine inhibitory activities were tested as follows. Mediums and reagents used in cell culture were purchased from GIBCO BRL (USA), and mouse TNF-α ELISA kit was purchased from R&D system (USA). The apparatus used ELISA reader (Spectra max-Plus 384, Molecular Device, USA).
Murine macrophage cell line RAW 264.7 was kindly provided by Korean Tissue Culture Center (KTCC). The cell line was cultured in DMEM medium containing 10% FBS, in a cell culturing device at the condition of 37° C., 5% CO2. First, murine RAW 264.7 was cultured in DMEM medium containing 10% FBS for about 24 hours, and cells were planted 200 μL each in 96 well plates at the concentration of 5×10^5/mL and cultured for about 24 hours. Then, test compounds were treated at various concentrations and then reacted at 37° C. for about 1 hour, wherein 1 μg/mL of lipopolysaccharide (LPS) was added thereto and reacted at 37° C. for about 12 hours. The supernatant was recovered and the amount of murine TNF-α on the medium was quantitated using ELISA kit. Thalidomide was respectively used as a positive and a negative control to compare the activities and the results are shown in the following tables 4a -4c.

[3] = test system: ICR (Institute of Cancer Research) mouse; assay: Analgesic test (acetic acid-induced stretchings); assay type: in vivo; settings: oral, 100 mg/kg
Experimental: Male ICR (Institute of Cancer Research) mouse with body weight of about 20 to 30 g were tested wherein each group had 6 mouses. After 1 hour of the oral administration of a test compound, acetic acid (in distilled water) was abdominally administered. For the duration of 10 minutes, the animals were observed regarding the number of stretchings and the number was compared with that of placebo treated group and the result is shown in the following table 7.

[4] = test system: ICR (Institute of Cancer Research) mouse; assay: Croton oil-induced ear edema test; assay type: in vivo; settings: oral, 100 mg/kg
Experimental: (§1) Male ICR (Institute of Cancer Research) mouse with body weight of about 20 to 30 g were tested wherein each group had 6 mouses. After 1 hour of the oral administration of a test compound, Croton oil (in acetone solution) was coated on one of the ears. After 4 hours, the thickness of the swollen ear in treated group was compared with the other unswollen ear and obtained the average increase rate in thickness of ear by the treatment.

[5] = test system: ICR (Institute of Cancer Research) mouse; assay: Arachidonic acid-induced ear edema test; assay type: in vivo; settings: oral, 100 mg/kg
Experimental: as §1, with “Arachidonic acid” for “Croton oil”, “1 hour,” for “4 hours,”

## Cc1cc2c(c(N3CCOCC3)n1)C(=O)OCC2 [Ex. 33, 6-methyl-8-morpholine-4-yl-3,4-dihydro-pyrano[3,4-c]pyridine-1-on]
TNF-α [1]
  inhibition in vivo at 40 mg/kg: 90%
  inhibitory activity on production of TNF-α compared to Indomethacin: 1.5 or 2 times greater
TNF-α [2]; test conc. 10 μM
  inhibition at 10 µM: 9%
TNF-α [2]; test conc. 100 μM
  inhibition at 100 µM: 18%
TNF-α [2]; test conc. 1 mM
  inhibition at 1000 µM: 29%

## O=C1c2cnccc2CCN1Cc1ccccc1 [Ex. 117, 2-benzyl-3,4-dihydro-2H-[2,7]naphtyridine-1-on]
TNF-α [1]
  TNF-α Inhibition Rate (Conc.): 69% (40 mg/kg)
TNF-α [2]; test conc. 1 μM
  TNF-α Inhibition Rate (%): 10%
TNF-α [2]; test conc. 10 μM
  TNF-α Inhibition Rate (%): 18%
TNF-α [2]; test conc. 100 μM
  TNF-α Inhibition Rate (%): 29%
TNF-α [2]; test conc. 1 mM
  TNF-α Inhibition Rate (%): 35%

## Cc1cc2c(c(-c3ccc(F)cc3)n1)C(=O)OCC2 [Ex. 30, 8-(4-fluorophenyl)-6-methyl-3,4-dihydro-pyrano[3,4-c]pyridine-1-on]
TNF-α [1]
  inhibition in vivo at 40 mg/kg: 79%
  inhibitory activity on production of TNF-α compared to Indomethacin: 1.5 or 2 times greater
TNF-α [2]; test conc. 1 μM
  inhibition at 1 µM: 100%
TNF-α [2]; test conc. 10 μM
  inhibition at 10 µM: 100%
TNF-α [2]; test conc. 100 μM
  inhibition at 100 µM: 100%
TNF-α [2]; test conc. 1 mM
  inhibition at 1000 µM: 100%
TNF-α [2]
  inhibitory activity in RAW 264.7 cell line on the production of TNF-α, in words: superiorities over to the control compounds

## CC(=O)Oc1nc(-c2ccccc2)cc2c1C(=O)OCC2 [Ex. 78, 1-oxo-6phenyl-3,4-dihydro-1H-pyrano[3,4-c]pyridine-8-yl acetic ester]
TNF-α [1]
  TNF-α Inhibition Rate (Conc.): 68% (40 mg/kg)
TNF-α [2]; test conc. 1 μM
  TNF-α Inhibition Rate (%): 79%
TNF-α [2]; test conc. 10 μM
  TNF-α Inhibition Rate (%): 85%
TNF-α [2]; test conc. 100 μM
  TNF-α Inhibition Rate (%): 98%
TNF-α [2]; test conc. 1 mM
  TNF-α Inhibition Rate (%): 100%
TNF-α [2]
  inhibitory activity in RAW 264.7 cell line on the production of TNF-α, in words: superiorities over to the control compounds

## Cc1ccc(-c2cc(C(F)(F)F)nn2-c2ccc(S(N)(=O)=O)cc2)cc1 [Celecoxib, reference compound]
[3]
  Inhibition Rate (%): 81%
[4]
  Inhibition Rate (%): 35%
[5]
  Inhibition Rate (%): 33%

## Cc1cc2c(c(N3CCCCC3)n1)C(=O)OCC2 [Ex. 32, 6-methyl-8-piperidine-1-yl-3,4-dihydro-pyrano[3,4-c]pyridine-1-on]
TNF-α [1]
  inhibition in vivo at 40 mg/kg: 74%
  inhibitory activity on production of TNF-α compared to Indomethacin: 1.5 or 2 times greater
TNF-α [2]; test conc. 1 μM
  inhibition at 1 µM: 69%
TNF-α [2]; test conc. 10 μM
  inhibition at 10 µM: 78%
TNF-α [2]; test conc. 100 μM
  inhibition at 100 µM: 89%
TNF-α [2]; test conc. 1 mM
  inhibition at 1000 µM: 100%

## Cc1cc2c(c(N)n1)C(=O)OCC2 [Ex. 53, 8-amino-6-methyl-3,4-dihydro-pyrano[3,4-c]pyridine-1-on]
TNF-α [1]
  inhibition in vivo at 40 mg/kg: 53%
TNF-α [2]; test conc. 1 μM
  inhibition at 1 µM: 85%
TNF-α [2]; test conc. 10 μM
  inhibition at 10 µM: 100%
TNF-α [2]; test conc. 100 μM
  inhibition at 100 µM: 100%
TNF-α [2]; test conc. 1 mM
  inhibition at 1000 µM: 100%
TNF-α [2]
  inhibitory activity in RAW 264.7 cell line on the production of TNF-α, in words: superiorities over to the control compounds

## COc1nc(-c2ccccc2)cc2c1C(=O)OCC2 [Ex. 79, 8-methoxy-6-phenyl-3,4-dihydro-pyrano[3,4-c]pyridine-1-on]
TNF-α [1]
  inhibition in vivo at 40 mg/kg: 78%
  inhibitory activity on production of TNF-α compared to Indomethacin: 1.5 or 2 times greater
TNF-α [2]; test conc. 1 μM
  inhibition at 1 µM: 76%
TNF-α [2]; test conc. 10 μM
  inhibition at 10 µM: 8%
TNF-α [2]; test conc. 100 μM
  inhibition at 100 µM: 94%
TNF-α [2]; test conc. 1 mM
  inhibition at 1000 µM: 100%
TNF-α [2]
  inhibitory activity in RAW 264.7 cell line on the production of TNF-α, in words: superiorities over to the control compounds

## CC(=O)Oc1nc(C)cc2c1C(=O)OCC2 [Ex. 21, 6-methyl-1-oxo-3,4-dihydro-1H-pyrano[3,4-c]pyridine-8-yl acetic ester]
TNF-α [1]
  TNF-α Inhibition Rate (Conc.): 93% (40 mg/kg)
  inhibitory activity on production of TNF-α compared to Indomethacin: 1.5 or 2 times greater
TNF-α [2]; test conc. 1 μM
  TNF-α Inhibition Rate (%): 9%
TNF-α [2]; test conc. 10 μM
  TNF-α Inhibition Rate (%): 15%
TNF-α [2]; test conc. 100 μM
  TNF-α Inhibition Rate (%): 34%
TNF-α [2]; test conc. 1 mM
  TNF-α Inhibition Rate (%): 77%

## COc1ccc(CN2CCc3ccncc3C2=O)cc1 [Ex. 115, 2-(4methoxy-benzyl)-3,4-dihydro-2H-[2,7]naphtyridine-1-on]
TNF-α [1]
  TNF-α Inhibition Rate (Conc.): 43% (40 mg/kg)
TNF-α [2]; test conc. 1 μM
  TNF-α Inhibition Rate (%): 50%
TNF-α [2]; test conc. 10 μM
  TNF-α Inhibition Rate (%): 59%
TNF-α [2]; test conc. 100 μM
  TNF-α Inhibition Rate (%): 65%
TNF-α [2]; test conc. 1 mM
  TNF-α Inhibition Rate (%): 78%

## Cc1nc(-c2ccccc2)cc2c1C(=O)OCC2 [Ex. 77, 8-methyl-6-phenyl-3,4-dihydro-pyrano[3,4-c]pyridine-1-on]
TNF-α [1]
  inhibition in vivo at 40 mg/kg: 66%
TNF-α [2]; test conc. 1 μM
  inhibition at 1 µM: 68%
TNF-α [2]; test conc. 10 μM
  inhibition at 10 µM: 76%
TNF-α [2]; test conc. 100 μM
  inhibition at 100 µM: 89%
TNF-α [2]; test conc. 1 mM
  inhibition at 1000 µM: 100%
TNF-α [2]
  inhibitory activity in RAW 264.7 cell line on the production of TNF-α, in words: superiorities over to the control compounds
